Reference: ChEMBL document CHEMBL1128211, “3D-quantitative structure-activity relationships of human immunodeficiency virus type-1 proteinase inhibitors: comparative molecular field analysis of 2-heterosubstituted statine derivatives-implications for the design of novel inhibitors” (J Med Chem, 1995)
pKi: −log10 of the molar value.

Molecular target: Human immunodeficiency virus type 1 protease (Human immunodeficiency virus 1, UniProt Q72874)
Assay: Inhibitory activity was determined against HIV type 1 protease

`COc1ccc(CN[C@@H](C(=O)NCc2ccc(OC)cc2O)[C@H](O)[C@H](Cc2ccccc2)NC(=O)[C@@H](NC(=O)OCc2ccccc2)C(C)C)cc1` showed a pKi of 5.52.

`CC(C)[C@H](NC(=O)COc1ccccc1)C(=O)N[C@@H](Cc1ccccc1)[C@@H](O)[C@@H](NCc1ccccc1)C(=O)NCc1ccccc1` showed a pKi of 6.86.

For `COc1ccc(CN[C@@H](C(=O)N[C@H](C(=O)NCCNc2ccc([N+](=O)[O-])cn2)C(C)C)[C@H](O)[C@H](Cc2ccccc2)NC(=O)[C@@H](NC(=O)OCc2ccccc2)C(C)C)cc1`, the pKi was 8.02.

Work on `CC(C)(C)[C@H](NC(=O)OCc1ccccc1)C(=O)N[C@@H](Cc1ccccc1)[C@@H](O)[C@@H](NCc1ccc(CNC(=O)Nc2ccccc2)cc1)C(=O)N[C@H]1c2ccccc2CC1O` (stereo partly drawn) yielded a pKi of 8.48.

`COc1ccc(CN[C@@H](C(=O)NCC(=O)NCc2nc3ccccc3[nH]2)[C@H](O)[C@H](Cc2ccccc2)NC(=O)[C@@H](NC(=O)OCc2ccccc2)C(C)C)cc1` gave a pKi of 7.81.

`CC(C)[C@H](N)C(=O)N[C@@H](Cc1ccccc1)[C@@H](O)[C@@H](NCc1ccccc1)C(=O)N[C@H](C(=O)NCc1ccccc1)C(C)C` showed a pKi of 6.13.

In the case of `CC(C)(C)[C@H](NC(=O)OCc1ccccc1)C(=O)N[C@@H](Cc1ccccc1)[C@@H](O)[C@@H](NCc1ccc(OCCO)cc1)C(=O)N[C@H]1c2ccccc2CC1O` (stereo partly drawn), the pKi was 7.80.

`CC(C)(C)[C@H](NC(=O)OCc1ccccc1)C(=O)N[C@@H](Cc1ccccc1)[C@@H](O)[C@@H](NCc1ccc(OCCO)cc1)C(=O)NCc1ccccc1` was tested, and the pKi was 7.47.

`COc1ccc(CN[C@@H](C(=O)N[C@H](C(=O)NCc2nc3ccccc3[nH]2)C(C)C)[C@H](O)[C@H](Cc2ccccc2)NC(=O)[C@@H](NC(=O)CCc2ccc(C(P(=O)(O)OCc3ccccc3)P(=O)(O)OCc3ccccc3)cc2)C(C)(C)C)cc1` (stereo partly drawn) showed a pKi of 8.28.

In the case of `COc1ccc(CN[C@@H](C(=O)N[C@H](C(=O)NCc2ccc(N3NC=CS3)cc2)C(C)C)[C@H](O)[C@H](Cc2ccccc2)NC(=O)[C@@H](NC(=O)OCc2ccccc2)C(C)C)cc1`, the pKi was 7.85.

Molecule `CC(C)[C@H](NC(=O)CCCCCNC(=O)OC(C)(C)C)C(=O)N[C@@H](Cc1ccccc1)[C@@H](O)[C@@H](NCc1ccccc1)C(=O)N[C@H](C(=O)NCc1ccccc1)C(C)C` has a pKi of 7.68.

Molecule `CC(C)(C)[C@H](NC(=O)OCc1ccccc1)C(=O)N[C@@H](Cc1ccccc1)[C@@H](O)[C@@H](NCc1ccccc1)C(=O)N[C@@H](CO)c1ccccc1` has a pKi of 7.44.

`CC(C)[C@H](NC(=O)[C@H](NCc1ccc(Cl)cc1)[C@H](O)[C@@H](N)Cc1ccccc1)C(=O)NCc1nc2ccccc2[nH]1` was tested, and the pKi was 6.74.

For `CC(C)[C@H](NC(=O)OCc1ccccc1)C(=O)N[C@@H](Cc1ccccc1)[C@@H](O)[C@@H](NCc1ccccc1)C(=O)N[C@H](C(=O)NCc1ccncc1)C(C)C`, the pKi was 7.96.

With `COc1ccc(CN[C@@H](C(=O)NCC(=O)Nc2cnccc2N)[C@H](O)[C@H](Cc2ccccc2)NC(=O)[C@@H](NC(=O)OCc2ccccc2)C(C)C)cc1` the pKi was 5.82.

Work on `COc1ccc(CN[C@@H](C(=O)N[C@H](C(=O)Nc2nc3ccccc3s2)C(C)C)[C@H](O)[C@H](Cc2ccccc2)NC(=O)[C@@H](NC(=O)OCc2ccccc2)C(C)C)cc1` yielded a pKi of 7.98.

Work on `COc1ccc(CN[C@@H](C(=O)N[C@H](C(=O)NCCc2nc3ccccc3[nH]2)C(C)C)[C@H](O)[C@H](Cc2ccccc2)NC(=O)[C@@H](NC(=O)OCc2ccccc2)C(C)C)cc1` yielded a pKi of 8.05.

Work on `CC(C)(C)[C@H](NC(=O)OCc1ccccc1)C(=O)N[C@@H](Cc1ccccc1)[C@@H](O)[C@@H](NCc1ccc(OCCN2CCOCC2)cc1)C(=O)N[C@H](CO)c1ccccc1` (stereo in doubt; 283267) yielded a pKi of 6.89.

`COc1ccc(CN[C@@H](C(=O)NCCC(=O)NCc2nc3ccccc3[nH]2)[C@H](O)[C@H](Cc2ccccc2)NC(=O)[C@@H](NC(=O)OCc2ccccc2)C(C)C)cc1` gave a pKi of 7.33.

With `COc1ccc(CN[C@@H](C(=O)N[C@H](C(=O)NCC2CCCCC2O)C(C)C)[C@H](O)[C@H](Cc2ccccc2)NC(=O)[C@@H](NC(=O)OCc2ccccc2)C(C)C)cc1` (stereo partly drawn) the pKi was 7.80.

In the case of `CC(C)(C)[C@H](NC(=O)OCc1ccccc1)C(=O)N[C@@H](Cc1ccccc1)[C@@H](O)[C@@H](NCc1ccc(CNC(=O)OCc2ccccc2)cc1)C(=O)N[C@H]1c2ccccc2CC1O` (stereo partly drawn), the pKi was 8.00.

For `CCOC(=O)[C@H](NCc1ccc(CNCc2ccccc2)cc1)[C@H](O)[C@H](Cc1ccccc1)NC(=O)[C@@H](NC(=O)OCc1ccccc1)C(C)C`, the pKi was 5.72.

`COc1ccc(CN[C@@H](C(=O)N[C@H]2c3ccccc3CC2O)[C@H](O)[C@H](Cc2ccccc2)NC(=O)[C@@H](NC(=O)OC(C)(C)C)C(C)(C)C)cc1` (stereo partly drawn) showed a pKi of 6.68.

Molecule `CC(C)[C@H](NC(=O)OCc1ccccc1)C(=O)N[C@@H](Cc1ccccc1)[C@@H](O)[C@H](NCc1ccccc1)C(=O)N[C@H](C(=O)NCc1cccnc1)C(C)C` has a pKi of 6.85.

For `COc1ccc(CN[C@@H](C(=O)N[C@H](C(=O)NCc2nc3ccccc3[nH]2)C(C)C)[C@H](O)[C@H](Cc2ccccc2)NC(=O)[C@@H](NC(=O)OCc2ccccc2)C(C)C)cc1OC`, the pKi was 7.90.

Work on `CC(C)(C)[C@H](NC(=O)OCc1ccccc1)C(=O)N[C@@H](Cc1ccccc1)[C@@H](O)[C@@H](NCc1ccccc1)C(=O)N[C@@H]1c2ccccc2CC1O` (stereo partly drawn) yielded a pKi of 5.80.

For `CC(C)(C)[C@H](NC(=O)OCc1ccccc1)C(=O)N[C@@H](Cc1ccccc1)[C@@H](O)[C@@H](NCc1ccccc1)C(=O)NC(CO)c1ccccc1` (stereo partly drawn), the pKi was 6.97.

Molecule `CCOC(=O)[C@H](NCc1ccc(Cl)cc1)[C@H](O)[C@H](Cc1ccc(OC)cc1)NC(=O)OC(C)(C)C` has a pKi of 5.43.

Work on `CC(C)(C)OC(=O)N[C@@H](Cc1ccccc1)[C@@H](O)[C@@H](NCc1ccc(OCCN2CCOCC2)cc1)C(=O)N[C@H]1c2ccccc2CC1O` (stereo partly drawn) yielded a pKi of 6.79.

`CC(C)(C)OC(=O)N[C@@H](Cc1ccccc1)[C@@H](O)[C@@H](NCc1ccc(CNC(=O)CCc2nc3ccccc3[nH]2)cc1)C(=O)NC(CO)c1ccccc1` (stereo partly drawn) showed a pKi of 5.60.

`COc1ccc(CCN[C@@H](C(=O)N[C@H](C(=O)NCc2nc3ccccc3[nH]2)C(C)C)[C@H](O)[C@H](Cc2ccccc2)NC(=O)[C@@H](NC(=O)OCc2ccccc2)C(C)C)cc1` gave a pKi of 7.90.

In the case of `CC(C)(C)OC(=O)N[C@@H](Cc1ccccc1)[C@@H](O)[C@@H](NCc1ccc(CNC(=O)Nc2ccccc2)cc1)C(=O)N[C@H]1c2ccccc2CC1O` (stereo partly drawn), the pKi was 7.48.

Work on `CC(C)[C@H](NC(=O)OCc1ccccc1)C(=O)N[C@@H](Cc1ccccc1)[C@@H](O)[C@@H](Nc1ccc(-c2ccccc2)cc1)C(=O)N[C@H](C(=O)NCc1nc2ccccc2[nH]1)C(C)C` yielded a pKi of 8.05.

`COc1ccc(CN[C@@H](C(=O)N[C@H](C(=O)NCCc2ccc(S(N)(=O)=O)cc2)C(C)C)[C@H](O)[C@H](Cc2ccccc2)NC(=O)[C@@H](NC(=O)OCc2ccccc2)C(C)C)cc1` showed a pKi of 7.85.

`COc1ccc(CN[C@@H](C(=O)N[C@H](C(=O)NCc2ccccc2)C(C)C)[C@H](O)[C@H](Cc2ccccc2)NC(=O)[C@@H](NC(=O)N(C)Cc2nc3ccccc3[nH]2)C(C)C)cc1` showed a pKi of 7.99.

Molecule `COc1ccc(CN[C@@H](C(=O)N[C@H](C(=O)Nc2nc3ccccc3[nH]2)C(C)C)[C@H](O)[C@H](Cc2ccccc2)NC(=O)[C@@H](NC(=O)OCc2ccccc2)C(C)C)cc1` has a pKi of 8.00.

In the case of `CC(C)(C)OC(=O)N[C@@H](Cc1ccccc1)[C@@H](O)[C@@H](NCc1ccc(CNC(=O)CCc2nc3ccccc3[nH]2)cc1)C(=O)NCc1ccccc1`, the pKi was 6.17.

With `CC(C)[C@H](NC(=O)[C@H](NCc1ccc(Cl)cc1)[C@H](O)[C@H](Cc1ccccc1)NC(=O)OC(C)(C)C)C(=O)NCc1nc2ccccc2[nH]1` the pKi was 7.96.

Work on `COc1ccc(CN[C@@H](C(=O)N[C@H](C(=O)NCc2ccc(OC)cc2O)C(C)C)[C@H](O)[C@H](Cc2ccccc2)NC(=O)[C@@H](NC(=O)OCc2ccccc2)C(C)C)cc1` yielded a pKi of 7.85.

Work on `CC(C)(C)[C@H](NC(=O)OCc1ccccc1)C(=O)N[C@@H](Cc1ccccc1)[C@@H](O)[C@@H](NCc1ccc(OCCN2CCOCC2)cc1)C(=O)N[C@H]1c2ccccc2CC1O` (stereo partly drawn) yielded a pKi of 8.02.

With `COc1cccc(CN[C@@H](C(=O)N[C@H](C(=O)NCc2nc3ccccc3[nH]2)C(C)C)[C@H](O)[C@H](Cc2ccccc2)NC(=O)[C@@H](NC(=O)OCc2ccccc2)C(C)C)c1` the pKi was 8.01.

For `COc1ccc(CN[C@@H](C(=O)N[C@@H]2c3ccccc3CC2O)[C@H](O)[C@H](Cc2ccccc2)NC(=O)[C@@H](NC(=O)OCc2ccccc2)C(C)(C)C)cc1` (stereo partly drawn), the pKi was 8.02.

In the case of `CC(C)[C@H](NC(=O)c1ccc2ccccc2n1)C(=O)N[C@@H](Cc1ccccc1)[C@@H](O)[C@@H](NCc1ccccc1)C(=O)N[C@H](C(=O)NCc1ccccn1)C(C)C`, the pKi was 7.37.

For `CC(C)[C@H](NC(=O)[C@H](NCc1ccccc1)[C@H](O)[C@H](Cc1ccccc1)NC(=O)[C@@H](NC(=O)OC(C)(C)C)C(C)(C)C)C(=O)NCc1ccccc1`, the pKi was 6.38.

For `CC(C)[C@H](NC(=O)[C@H](NCc1ccccc1)[C@H](O)[C@H](Cc1ccccc1)NC(=O)[C@@H](NC(=O)OCc1ccccn1)C(C)(C)C)C(=O)NCc1ccccc1`, the pKi was 8.91.

In the case of `CC(C)[C@H](N)C(=O)C[C@@H](Cc1ccccc1)[C@@H](O)[C@H]1CCc2ccc(cc2)OCCOCCCOCCNC(=O)[C@H](C(C)C)CC1=O`, the pKi was 8.16.

In the case of `CC(C)[C@H](NC(=O)[C@H](NCc1ccccc1)[C@H](O)[C@H](Cc1ccccc1)NC(=O)[C@@H](N)C(C)(C)C)C(=O)NCc1ccccc1`, the pKi was 7.04.

For `CC(C)[C@H](NC(=O)[C@H](NCc1ccccc1)[C@H](O)[C@H](Cc1ccccc1)NC(=O)[C@H](CC(N)=O)NC(=O)c1ccc2ccccc2n1)C(=O)NCc1ccccc1`, the pKi was 7.62.

`COc1ccc(CN[C@@H](C(=O)N[C@H](C(=O)NCc2nc3ccccc3[nH]2)C(C)C)[C@H](O)[C@@H](N)Cc2ccccc2)cc1` showed a pKi of 6.64.

`CC(C)[C@H](NC(=O)OCc1ccccc1)C(=O)N[C@@H](Cc1ccccc1)[C@@H](O)[C@@H](NCc1ccc(Br)cc1)C(=O)N[C@H](C(=O)NCc1nc2ccccc2[nH]1)C(C)C` showed a pKi of 7.82.

For `CC(C)[C@H](NC(=O)OCc1ccccc1)C(=O)N[C@@H](CCc1ccccc1)[C@@H](O)[C@@H](NCc1ccc(Cl)cc1)C(=O)N[C@H](C(=O)NCc1nc2ccccc2[nH]1)C(C)C`, the pKi was 7.77.

`CC(C)[C@H](NC(=O)[C@H](NCc1ccccc1)[C@H](O)[C@H](Cc1ccccc1)NC(=O)[C@@H](NC(=O)OCC1c2ccccc2-c2ccccc21)C(C)(C)C)C(=O)NCc1ccccc1` gave a pKi of 7.80.

Work on `COc1ccc(CN[C@@H](C(=O)N[C@H](C(=O)NCCc2ccc(O)cc2)C(C)C)[C@H](O)[C@H](Cc2ccccc2)NC(=O)[C@@H](NC(=O)OCc2ccccc2)C(C)C)cc1` yielded a pKi of 7.74.
